Test results published in paper PMC9081605, “A High-Throughput Toxicity Screen of 42 Per- and Polyfluoroalkyl Substances (PFAS) and Functional Assessment of Migration and Gene Expression in Human Placental Trophoblast Cells” (Frontiers in Toxicology, 2022).
“Also recorded” adds a separate entry of the source.

Experiments:
Assay type in all cases: cell-based, human
[1] = tested on: JEG-3 cells; assay: CellTiter-Glo luminescent cell viability assay (HTTS)
Method in brief: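 JEG-3 cells (2,500/well) adhered overnight, then exposed 24 h to PFAS (methanol stocks; vehicle 2.5% methanol, top concentration 500 µM). Viability read by CellTiter-Glo ATP luminescence in the same wells as mitochondrial membrane potential; wells with 0 h confluence <20% or >80% excluded.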

[2] = tested on: JEG-3 cells; assay: Proliferation, change in confluence 0-24 h (IncuCyte Zoom, HTTS)
Method in brief: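 Confluence measured by automated image masking at 0 h and 24 h after dosing; proliferation = 24 h minus baseline confluence. JEG-3 seeded at 2,500 cells/well, ~30–50% baseline confluence, exposed 24 h to PFAS up to 500 µM in medium with 2.5% methanol vehicle; 37°C, 5% CO2.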

[3] = tested on: JEG-3 cells; assay: Mitochondrial membrane potential, JC-10 assay (HTTS)
Method in brief: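 JEG-3 cells seeded at 2,500 per well were exposed to PFAS for 24 h at 37 °C, with 2.5% methanol vehicle. After a PBS wash, 20 μM JC-10 was added for 1 h at 37 °C. Membrane potential was taken as the green (490/525 nm) to red (540/590 nm) fluorescence ratio.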

[4] = tested on: JEG-3 cells; assay: Phase contrast live cell images, cell death (positive control); settings: 24 h
Procedure: A total of 42 perfluoroalkyl substances (PFAS) were evaluated (Supplementary Table S1 contains source and purity). PFAS stock solutions were maintained in 100% methanol as previous work has shown certain PFAS degrade when stored in dimethyl sulfoxide (DMSO; [Gaballah et al., 2020]). […] The vehicle control group consisted of 97.5% media + 2.5% methanol to match the concentration of methanol in the media at the highest PFAS concentration tested (500 µM). Menadione (50–500 µM) was used as a positive control for cytotoxicity assessment. PFAS were de-identified and assigned random numbers to eliminate bias. Chemical exposure plate maps were designed so that all experimental conditions were tested in at least technical duplicates per plate. The outer edges of each plate received media alone and were excluded from all analyses to avoid edge effects. Each plate map included 14 technical replicates of the vehicle control group and 14 technical replicates of media only. Biological replicates were defined as separate 384 well plates tested on separate days using different cell passages. The experimental workflow is depicted in Supplementary Figure S1.
JEG-3 cells were counted using a Z2 Coulter Particle Counter (Beckman Coulter, CA, United States) and seeded at a density of 2,500 cells per well in black-walled, clear bottom 384 well plates (Corning, #3764) and allowed to adhere overnight. Approximately 24 h later, 384 well plates were imaged using an IncuCyte Zoom live cell imager (Essen BioScience Inc., MI, United States) to obtain baseline cellular confluence measurements prior to chemical dosing (0 h). Media was removed from wells and replaced with fresh media containing chemical treatments (exposure media) using a Viaflo liquid handling device (Integra Biosciences, NH, United States). Within 30 min of exposure media application, plates were again imaged for cellular confluence using the IncuCyte Zoom. Plates were incubated with exposure media for 24 h and then imaged again using the IncuCyte Zoom (24 h).

[5] = tested on: JEG-3 cells; assay: Scratch wound migration assay; settings: after 24 h of exposure, 25-200 µM
Procedure: JEG-3 cells were cultured as described in Cell Culture section, and six PFAS were evaluated across an 8-point linear concentration curve ranging from 25 to 200 µM (25 µM steps): PFOA (335-67-1), GenX (62037-80-3), PFOS (1763-23-1), perfluorooctanesulfonamide (PFOSA, 754-91-6), perfluorooctanamide (PFOAA, 423-54-1), and perfluorononanoic acid (PFNA, 375-95-1). The vehicle control group consisted of 98% media + 2% methanol to match the concentration of methanol in the media at the highest PFAS concentration tested (200 µM). Cadmium chloride (25 µM) was used as a positive control for cytotoxicity ([Brooks and Fry, 2017]). Chemical exposure plate maps were designed so that all experimental conditions were tested in at least technical duplicates per plate. The outer edges of each plate received media alone and were excluded from all analyses to avoid edge effects. JEG-3 cells were counted and seeded at a density of 80,000 cells per well in black-walled, clear bottom 96-well plates (Corning #CLS3603, Millipore Sigma) and allowed to adhere and grow for 36 h. After approximately 36 h, 96-well plates were imaged on the IncuCyte Zoom to obtain cellular confluence measurements prior to chemical dosing (0 h). Media was then removed from wells and replaced with fresh serum-free media containing chemical treatments (serum-free exposure media) using the Viaflo liquid handling device. After 1 h of treatment with serum-free exposure media, plates were again imaged for cellular confluence using the IncuCyte Zoom. Serum-free exposure media was then removed from wells and wells were scratched by dragging a 200 µl pipette tip from top to bottom of each well, changing tips every well. Fresh media containing serum and chemical treatments (exposure media) was added to plates using a liquid handling device and allowed to grow for 72 h, with imaging via the IncuCyte Zoom every 6 h.
Plate well bottom images were evaluated using automated cell masking as described in Proliferation section. Cell migration was calculated as the change in cellular confluence from the baseline measurement obtained immediately post-scratch to each subsequent time point (24, 48, and 72 h, post-scratch).
Raw migration assay data exported from IncuCyte software were analyzed using GraphPad Prism 8.0 (GraphPad Software, San Diego, CA)). Prior to analysis, a minimum starting confluence value of 70% was set to ensure comparisons between samples were not skewed. Images with a starting confluence of less than 70% were excluded from analysis. Statistical analysis was performed using multiple unpaired t-tests to compare treated groups to the vehicle control followed by post hoc correction for multiple tests using the Bonferroni-Dunn method. Concentration-response analysis to determine migration assay EC50s was attempted but was not able to be modeled due to the non-linear nature of the concentration-response relationship for this endpoint.

[6] = after 24 h, in at least one concentration
[7] = Homo sapiens, JEG-3, 24 h, read-out: Proliferation EC50 ± SD, JEG-3 cells, 24 h exposure, four-parameter fit, estimates meeting inclusion criteria

SMILES | EC50 ([1]; Homo sapiens, JEG-3, 24 h, read-out: Viability EC50 ± SD, JEG-3 cells, 24 h exposure, four-parameter fit, estimates meeting inclusion criteria) [µM] | cell viability relative to vehicle control (rough binning) [1, 6] | minimal effective concentration ([2]; Homo sapiens, JEG-3, 24 h, read-out: Prolif ↓, lowest concentration at which the mean response value exceeded the mean control value ± 2*SD (rough binning)) [µM] | EC50 [2, 7] [µM] | cellular proliferation relative to vehicle control (rough binning) [2, 6] | minimal effective concentration ([3]; Homo sapiens, JEG-3, 24 h, read-out: MMP ↓, lowest concentration at which the mean response value exceeded the mean control value ± 2*SD (rough binning)) [µM] | MMP relative to vehicle control (rough binning) [3, 6] | cytotoxicity / cell death ([4]; 100 µM) | cell death ([4]; 150 µM) | concentration that promoted cell death [4] [µM] | EC50 ([2]; Homo sapiens, JEG-3, 24 h, read-out: proliferation EC50 ± SE, JEG-3 cells, 24 h) [µM] | EC50 ([2]; Homo sapiens, JEG-3, read-out: Proliferation EC50 ± SD (raw values), JEG-3 cells, raw model output including fits that did not meet inclusion criteria) [µM] | EC50 ([3]; Homo sapiens, JEG-3, 24 h, read-out: MMP EC50 ± SD, JEG-3 cells, 24 h exposure, four-parameter fit, estimates meeting inclusion criteria) [µM] | cellular migration relative to vehicle control [5]
CC1=CC(=O)c2ccccc2C1=O [Menadione, reference compound] | 206 ± 47.1 | reduced cell viability | 150 | 157 ± 21.4 | reduced proliferation | 300 | reduced MMP | minimal cell death; also recorded: not cytotoxic | Complete cell death | ≥ 150 |  |  |  | 
NC(=O)C(F)(F)C(F)(F)C(F)(F)C(F)(F)C(F)(F)C(F)(F)C(F)(F)F [Perfluorooctanamide] |  |  |  | 114 |  |  |  |  |  |  | 114 ± 35.6 | 114 ± 35.6 | 295 ± 66.1 | significantly reduced
